Measurements published in patent US20260262643A1, “HERBICIDAL BENZOXAZINES” (FMC CORPORATION, priority 2022, published 2026).

Experiments:
[1] = test system: barnyardgrass; assay: Test C preemergence; assay type: in vivo, Echinochloa crusgalli; conditions: 0 to 100 scale (0 no effect, 100 complete control)
Outline: (§1)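 Pre: seeds in loam/sand, directed soil spray. Post: 1–2 leaf plants, 2–10 cm. Cmpd in non-phytotoxic solvent + surfactant. Greenhouse 10 d; visual rating vs untreated, 0 = none, 100 = complete control.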

[2] = test system: galium; assay: Test C postemergence; assay type: in vivo, Galium aparine; conditions: 10 days
Outline: as §1

[3] = test system: ragweed; assay: Test C postemergence; assay type: in vivo, Ambrosia artemisiifolia; conditions: 10 days
Outline: as §1

[4] = test system: green foxtail; assay: Test C postemergence; assay type: in vivo, Setaria viridis; conditions: 10 days
Outline: as §1

[5] = test system: soybean; assay: Test C postemergence; assay type: in vivo, Glycine max; conditions: 10 days
Outline: as §1

[6] = test system: kochia; assay: Test C postemergence; assay type: in vivo, Bassia scoparia; conditions: 10 days
Outline: as §1

[7] = test system: soybean; assay: Test C preemergence; assay type: in vivo, Glycine max; conditions: 0 to 100 scale (0 no effect, 100 complete control)
Outline: as §1

[8] = test system: ragweed; assay: Test C preemergence; assay type: in vivo, Ambrosia artemisiifolia; conditions: 0 to 100 scale (0 no effect, 100 complete control)
Outline: as §1

[9] = test system: rice; assay: Test D flooded paddy test; assay type: in vivo, Oryza sativa; conditions: 250 g ai/ha, applied to paddy water, visual rating after 13 to 14 days, scale 0 to 100 (0 no effect, 100 complete control)
Outline: (§2)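 Rating scale 0–100 (0 no effect, 100 complete control), visual, versus controls. Readout at 13–14 days after in-water application to 2-leaf plants in pots flooded 3 cm deep.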

[10] = test system: pigweed, palmer; assay: Test C postemergence; assay type: in vivo, Amaranthus palmeri; conditions: 10 days
Outline: as §1

[11] = test system: green foxtail; assay: Test C preemergence; assay type: in vivo, Setaria viridis; conditions: 0 to 100 scale (0 no effect, 100 complete control)
Outline: as §1

[12] = test system: ryegrass, Italian; assay: Test C preemergence; assay type: in vivo, Lolium multiflorum; conditions: 0 to 100 scale (0 no effect, 100 complete control)
Outline: as §1

[13] = test system: oat, wild; assay: Test C preemergence; assay type: in vivo, Avena fatua; conditions: 0 to 100 scale (0 no effect, 100 complete control)
Outline: as §1

[14] = test system: blackgrass; assay: Test C preemergence; assay type: in vivo, Alopecurus myosuroides; conditions: 0 to 100 scale (0 no effect, 100 complete control)
Outline: as §1

[15] = test system: barnyardgrass; assay: Test C postemergence; assay type: in vivo, Echinochloa crusgalli; conditions: 10 days
Outline: as §1

[16] = test system: pigweed, palmer; assay: Test C preemergence; assay type: in vivo, Amaranthus palmeri; conditions: 0 to 100 scale (0 no effect, 100 complete control)
Outline: as §1

[17] = test system: corn; assay: Test C preemergence; assay type: in vivo, Zea mays; conditions: 0 to 100 scale (0 no effect, 100 complete control)
Outline: as §1

[18] = test system: wheat; assay: Test C preemergence; assay type: in vivo, Triticum aestivum; conditions: 0 to 100 scale (0 no effect, 100 complete control)
Outline: as §1

[19] = test system: wheat; assay: Test C postemergence; assay type: in vivo, Triticum aestivum; conditions: 10 days
Outline: as §1

[20] = test system: barnyardgrass; assay: Test D flooded paddy test; assay type: in vivo, Echinochloa crus-galli; conditions: 250 g ai/ha, applied to paddy water, visual rating after 13 to 14 days, scale 0 to 100 (0 no effect, 100 complete control)
Outline: as §2

[21] = test system: kochia; assay: Test C preemergence; assay type: in vivo, Bassia scoparia; conditions: 0 to 100 scale (0 no effect, 100 complete control)
Outline: as §1

[22] = test system: corn; assay: Test C postemergence; assay type: in vivo, Zea mays; conditions: 10 days
Outline: as §1

[23] = test system: ryegrass, Italian; assay: Test C postemergence; assay type: in vivo, Lolium multiflorum; conditions: 10 days
Outline: as §1

[24] = test system: ducksalad; assay: Test D flooded paddy test; assay type: in vivo, Heteranthera limosa; conditions: 250 g ai/ha, applied to paddy water, visual rating after 13 to 14 days, scale 0 to 100 (0 no effect, 100 complete control)
Outline: as §2

[25] = test system: sedge, umbrella; assay: Test D flooded paddy test; assay type: in vivo, Cyperus difformis; conditions: 250 g ai/ha, applied to paddy water, visual rating after 13 to 14 days, scale 0 to 100 (0 no effect, 100 complete control)
Outline: as §2

[26] = test system: blackgrass; assay: Test C postemergence; assay type: in vivo, Alopecurus myosuroides; conditions: 10 days
Outline: as §1

[27] = test system: horseweed; assay: Test C postemergence; assay type: in vivo, Erigeron canadensis; conditions: 10 days
Outline: as §1

[28] = test system: oat, wild; assay: Test C postemergence; assay type: in vivo, Avena fatua; conditions: 10 days
Outline: as §1

[29] = Preemergence, 500 g ai/ha, visual rating after 10 days
[30] = Test C, preemergence, 125 g ai/ha
[31] = 125 g ai/ha, postemergence, 0 to 100 scale, 0 no effect, 100 complete control
[32] = Postemergence, 500 g ai/ha, visual 0 to 100 scale (0 no effect, 100 complete control)

CC(C)n1cnc(-c2cccc(C(=O)N3C[C@H](C)Oc4c(Cl)cccc43)c2)n1 [Compound 172]
Plant response rating, Barnyardgrass [1, 29]: 0 | Barnyardgrass plant response rating [1, 30]: 0 | Plant response rating, Galium [2, 31]: 0 | Plant response rating, Galium [2, 32]: 0 | Plant response rating, Ragweed [3, 31]: 0 | Plant response rating, Ragweed [3, 32]: 0 | Plant response rating, Foxtail, Green [4, 31]: 0 | Plant response rating, Foxtail, Green [4, 32]: 0 | Plant response rating, Soybean [5, 31]: 0 | Plant response rating, Soybean [5, 32]: 0 | Plant response rating, Kochia [6, 31]: 0 | Plant response rating, Kochia [6, 32]: 30 | Plant response rating, Soybean [7, 29]: 0 | Soybean plant response rating [7, 30]: 0 | Plant response rating, Ragweed [8, 29]: 0 | Ragweed plant response rating [8, 30]: 0 | Plant response rating, Rice (Flood) [9]: 0 | Plant response rating, Pigweed, Palmer [10, 31]: 0 | Plant response rating, Pigweed, Palmer [10, 32]: 0 | Plant response rating, Foxtail, Green [11, 29]: 0 | Foxtail, Green plant response rating [11, 30]: 0 | Plant response rating, Ryegrass, Italian [12, 29]: 20 | Ryegrass, Italian plant response rating [12, 30]: 0 | Plant response rating, Oat, Wild [13, 29]: 0 | Oat, Wild plant response rating [13, 30]: 0 | Plant response rating, Blackgrass [14, 29]: 0 | Blackgrass plant response rating [14, 30]: 0 | Plant response rating, Barnyardgrass [15, 31]: 0 | Plant response rating, Barnyardgrass [15, 32]: 0 | Plant response rating, Pigweed, Palmer [16, 29]: 0 | Pigweed, Palmer plant response rating [16, 30]: 0 | Plant response rating, Corn [17, 29]: 0 | Corn plant response rating [17, 30]: 0 | Plant response rating, Wheat [18, 29]: 0 | Wheat plant response rating [18, 30]: 0 | Plant response rating, Wheat [19, 31]: 0 | Plant response rating, Wheat [19, 32]: 0 | Plant response rating, Barnyardgrass (Flood) [20]: 0 | Plant response rating, Kochia [21, 29]: 0 | Kochia plant response rating [21, 30]: 0 | Plant response rating, Corn [22, 31]: 0 | Plant response rating, Corn [22, 32]: 0 | Plant response rating, Ryegrass, Italian [23, 31]: 0 | Plant response rating, Ryegrass, Italian [23, 32]: 0 | Plant response rating, Ducksalad (Flood) [24]: 0 | Plant response rating, Sedge, Umbrella (Flood) [25]: 0 | Plant response rating, Blackgrass [26, 31]: 0 | Plant response rating, Blackgrass [26, 32]: 0 | Plant response rating, Horseweed [27, 31]: 0 | Plant response rating, Horseweed [27, 32]: 0 | Plant response rating, Oat, Wild [28, 31]: 0 | Plant response rating, Oat, Wild [28, 32]: 0
